We go through 22 compounds from patent publication US6335451B1, “Five-membered heterocycles having biphenylsulfonyl substitution, with sulfonylcyanamide side chain, compositions containing them, and methods of using them” (Hoechst Aktiengesellschaft, priority 1997, dated 2002).

The test system of data set [1] is Na+-dependent Cl−/HCO3− exchanger (NCBE). The data set is described as follows: Inhibition of the Na+-dependent Cl−/HCO3− exchanger (NCBE) in human endothelial cells (pHi recovery, BCECF fluorescence, FLIPR). The following applies: inhibitor concentration of 10 μM; human endothelial cells (ECV-304); relative to 100% and 0% pHi recovery controls, 50 μM HOE 642 present. The format is cell-based. Here is the method:
Inhibition of the Na^+-dependent Cl^−/HCO3^− exchanger (NCBE) in human endothelial cells
Human endothelial cells (ECV-304) were detached from culture bottles with the aid of trypsin/EDTA buffer (0.05/0.02% in phosphate buffer) and, after centrifugation (100 g, 5 min), taken up in a buffered salt solution (mmol/l: 115 NaCl, 20 NH4Cl, 5 KCl, 1 CaCl2, 1 MgSO4, 20 N-(2-hydroxyethyl)piperazine-N′-2-ethanesulfonic acid (HEPES), 5 glucose and 1 g/l of bovine serum albumin; pH 7.4). This cell suspension was incubated at 37° C. for 20 min with 5 μM BCECF-acetoxymethyl ester. The cells were then washed and resuspended in a sodium- and bicarbonate-free buffer solution (mmol/l: 5 HEPES, 133.8 choline chloride, 4.7 KCl, 1.25 MgCl2, 0.97 K2HPO4, 0.23 KH2PO4, 5 glucose; pH 7.4).
For subsequent fluorescence measurement in an FLIPR (Fluorescent Imaging Plate Reader) 100 μl of this cell suspension having 20,000 cells in each case were pipetted per well into a 96-well microtiter plate and this microtiter plate was centrifuged (100 g, 5 min).
In the FLIPR, 100 μl of buffer solution in each case were then removed from a further pretreated microtiter plate and pipetted into each of the 96 wells of the measurement plate. A bicarbonate- and sodium-containing buffer solution (mmol/l: 5 HEPES, 93.8 NaCl, 40 NaHCO3, 4.7 KCl, 1.25 CaCl2, 1.25 MgCl2, 0.97 Na2HPO4, 0.23 NaH2PO4, 5 glucose; pH 7.4) which contained 50 μM HOE 642 was used for a 100% control, i.e. a recovery of the intracellular pH (pHi) via the NCBE. For a 0% control, i.e. no pHi recovery at all, the bicarbonate-free, sodium-containing buffer solution (mmol/l: 5 HEPES, 133.8 NaCl, 4.7 KCl, 1.25 CaCl2, 1.25 MgCl2, 0.97 Na2HPO4, 0.23 NaH2PO4, 5 glucose; pH 7.4) was employed, to which 50 μM HOE 642 were likewise added. The compounds according to the invention were added to the sodium- and bicarbonate-containing solution in various concentrations.
After addition of the buffer solutions to the dye-loaded, acidified cells in the measurement plate, the rise in the fluorescence intensity which corresponded to a rise in the pHi in each well of the microtiter plate was determined. The kinetics were in this case recorded at 35° C. for a period of 2 minutes.
The increase in the fluorescence intensities for different concentrations of the compounds according to the invention was related to the two controls and from this inhibitory action of the substances was determined.
Residual Activity of the NCBE at an Inhibitor Concentration of 10 μM

For orientation: melting point means the temperature of the solid-liquid transition. Consider `CCCCc1nc(SC)c(C(=O)OCC)n1Cc1ccc(-c2ccc(S(=O)(=O)NC#N)cc2)cc1` [Example 3, Ethyl 2-butyl-5-methylsulfanyl-3-(4′-cyanoaminosulfonylbiphenyl-4-ylmethyl)-3H-imidazole-4-carboxylate], for which the melting point was 244 °C (dec.). Moreover, in data set [1], the “Residual activity in % (residual activity of the NCBE)” value (from here on “Residual activity in %”) was 74.1%.

Regarding `CCCCc1nc(SC)c(C(=O)OCC)n1Cc1ccc(-c2ccccc2S(=O)(=O)NC#N)cc1` [Example 1, Ethyl 2-butyl-5-methylsulfanyl-3-(2′-cyanoaminosulfonyl-biphenyl-4-ylmethyl)-3H-imidazole-4-carboxylate], the melting point was 111 °C (dec.). The “Residual activity in %” value in data set [1] came to 17.7%.

As for `CCCCc1nc(SC)c(C(=O)OCC)n1Cc1ccc(-c2cc(S(=O)(=O)NC#N)ccc2C)cc1` [Example 21, Ethyl 2-butyl-3-(2′-methyl-5′-cyanoaminosulfonylbiphenyl-4-yl-methyl)-5-methylsulfanyl-3H-imidazole-4-carboxylate], the melting point is 127 °C (dec.). Moreover, in data set [1], the “Residual activity in %” value is on record as 42.6%.

In turn, `COc1ccc(-c2nc(Cl)c(C=O)n2Cc2ccc(-c3ccccc3S(=O)(=O)NC#N)cc2)cc1` [Example 37, 4′-[4-Chloro-5-formyl-2-(4-methoxyphenyl)-imidazole-1-ylmethyl]-biphenyl-2-sulfonylcyanamide] returned a melting point of 110 to 126 °C. In data set [1], the “Residual activity in %” value is 16.8%.

`CCCCc1nc(SC)c(C(=O)OCC)n1Cc1ccc(-c2ccc(S(=O)(=O)NC#N)cc2C)cc1` [Example 22, Ethyl 2-butyl-3-(2′-methyl-4′-cyanoaminosulfonylbiphenyl-4-yl-methyl)-5-methylsulfanyl-3H-imidazole-4-carboxylate] returned a melting point of 211 °C. For the same compound, the “Residual activity in %” value in data set [1] came out at 34.2%.

As for `CCCc1nc(SC)c(C(=O)OCC)n1Cc1ccc(-c2ccccc2S(=O)(=O)NC#N)cc1` [Example 16], the melting point is 165 °C (dec.). Further, the “Residual activity in %” value in data set [1] was determined as 11.5%.

In the case of `CCCCc1nc(SC)c(C(=O)OCC)n1Cc1ccccc1-c1ccc(S(=O)(=O)NC#N)cc1` [Example 9, Ethyl 2-butyl-5-methylsulfanyl-3-(4′-cyanoaminosulfonyl-biphenyl-2-ylmethyl)-3H-imidazole-4-carboxylate], the melting point is 116 °C (dec.). The “Residual activity in %” value in data set [1] is 31.6%.

For `CCCCc1nc(SC)c(C(=O)OCC)n1Cc1cccc(-c2ccccc2S(=O)(=O)NC#N)c1` [Example 4, Ethyl 2-butyl-5-methylsulfanyl-3-(2′-cyanoaminosulfonyl-biphenyl-3-ylmethyl)-3H-imidazole-4-carboxylate], the melting point was 118 °C (dec.). In addition, the “Residual activity in %” value in data set [1] is given as 39.7%.

Consider `CCCCc1ncc(C(=O)OCC)n1Cc1ccc(-c2ccccc2S(=O)(=O)NC#N)cc1` [Example 13, Ethyl 2-butyl-3-(2′-cyanoaminosulfonylbiphenyl-4-ylmethyl)-3H-imidazole-4-carboxylate], for which the melting point was 121 °C (dec.). In addition, the “Residual activity in %” value in data set [1] is listed as 89.5%.

As to `CCCCc1nc(Cl)c(C=O)n1Cc1ccc(-c2ccccc2S(=O)(=O)NC#N)cc1` [Example 15, 4′-(2-Butyl-4-chloro-5-formylimidazol-1-ylmethyl)biphenyl-2-sulfonylcyanamide], the melting point was 135 °C (dec.). Also, the “Residual activity in %” value in data set [1] was 55.7%.

As to `CCCCc1nc(SC)c(C(=O)OCC)n1Cc1cccc(-c2ccc(S(=O)(=O)NC#N)cc2)c1` [Example 6, Ethyl 2-butyl-5-methylsulfanyl-3-(4′-cyanoaminosulfonyl-biphenyl-3-ylmethyl)-3H-imidazole-4-carboxylate], the melting point was 120 °C (dec.). In addition, the “Residual activity in %” value in data set [1] came to 58.6%.

In the case of `CCOC(=O)c1c(SC)nc(C(C)C)n1Cc1ccc(-c2ccccc2S(=O)(=O)NC#N)cc1` [Example 19, Ethyl 2-isopropyl-5-methylsulfanyl-3-(2′-cyanoaminosulfonylbiphenyl-4-ylmethyl)-3H-imidazole-4-carboxylate], the melting point was 276 °C (dec.). Also, the “Residual activity in %” value in data set [1] was determined as 21.5%.

For the compound `CCOC(=O)c1c(SC)nc(C2CC2)n1Cc1ccc(-c2ccccc2S(=O)(=O)NC#N)cc1` [Example 10, Ethyl 2-cyclopropyl-5-methylsulfanyl-3-(2′-cyanoaminosulfonylbiphenyl-4-ylmethyl)-3H-imidazole-4-carboxylate], the melting point is above 260 °C. Also, the “Residual activity in %” value in data set [1] is reported as 21.6%.

`N#CNS(=O)(=O)c1ccccc1-c1ccc(Cn2c(-c3c(F)cccc3F)nc(Cl)c2C=O)cc1` [Example 38, 4′-[4-Chloro-5-formyl-2-(2,6-difluorphenyl)-imidazole-1-ylmethyl]-biphenyl-2-sulfonylcyanamide] yielded a melting point of 164 to 178 °C. Moreover, the “Residual activity in %” value in data set [1] turned out to be 8.6%.

With `CCOC(=O)c1c(SC)nc(CC)n1Cc1ccc(-c2ccccc2S(=O)(=O)NC#N)cc1` [Example 17, Ethyl 2-ethyl-5-methylsulfanyl-3-(2′-cyanoaminosulfonylbiphenyl-4-ylmethyl)-3H-imidazole-4-carboxylate], the melting point was 94 °C (dec.). For the same compound, the “Residual activity in %” value in data set [1] was found to be 39.1%.

`CCCCc1nc(SC)c(C(=O)OCC)n1Cc1ccccc1-c1cccc(S(=O)(=O)NC#N)c1` [Example 8, Ethyl 2-butyl-5-methylsulfanyl-3-(3′-cyanoaminosulfonyl-biphenyl-2-ylmethyl)-3H-imidazole-4-carboxylate]: the melting point was 108 °C (dec.). The “Residual activity in %” value in data set [1] stood at 60.8%.

Turning to `CCCCc1nc(OC)c(C#N)n1Cc1ccc(-c2ccccc2S(=O)(=O)NC#N)cc1` [Example 14, 4′-(2-Butyl-5-cyano-4-methoxyimidazol-1-ylmethyl)biphenyl-2-sulfonylcyanamide], the melting point was 160 °C (dec.). The “Residual activity in %” value in data set [1] is on record as 47.3%.

Take `CCCCc1nc(SC)c(C(=O)OCC)n1Cc1cccc(-c2cc(S(=O)(=O)NC#N)ccc2C)c1` [Example 24, Ethyl 2-butyl-3-(2′-methyl-5′-cyanoaminosulfonylbiphenyl-3-yl-methyl)-5-methylsulfanyl-3H-imidazole-4-carboxylate]: the melting point is 160 °C (dec.). Moreover, the “Residual activity in %” value in data set [1] stood at 29.2%.

`N#CNS(=O)(=O)c1ccccc1-c1ccc(Cn2c(-c3ccc(Cl)cc3)nc(Cl)c2C=O)cc1` [Example 36, 4′-[4-Chloro-5-formyl-2-(4-chlorphenyl)-imidazole-1-ylmethyl]-biphenyl-2-sulfonylcyanamide] displayed a melting point of 160 to 187 °C. The “Residual activity in %” value in data set [1] is listed as 7.8%.

Turning to `CCCCc1nc(SC)c(C(=O)OCC)n1Cc1cccc(-c2ccc(S(=O)(=O)NC#N)cc2C)c1` [Example 25, Ethyl 2-butyl-3-(2′-methyl-4′-cyanoaminosulfonylbiphenyl-3-yl-methyl)-5-methylsulfanyl-3H-imidazole-4-carboxylate], the melting point is 115 °C (dec.). The “Residual activity in %” value in data set [1] amounted to 70.8%.

Consider `CCCCc1nc(SC)c(C(=O)OCC)n1Cc1cccc(-c2ccc(S(=O)(=O)NC#N)cc2C(F)(F)F)c1` [Example 26, Ethyl 2-butyl-5-methylsulfanyl-3-(4′-cyanoaminosulfonyl-2′-trifluoromethylbiphenyl-3-ylmethyl)-3H-imidazole-4-carboxylate], for which the melting point was 122 °C (dec.). In addition, the “Residual activity in %” value in data set [1] is recorded as 65.3%.

For `CCOC(=O)c1c(SC)nc(C)n1Cc1ccc(-c2ccccc2S(=O)(=O)NC#N)cc1` [Example 18, Ethyl 2-methyl-5-methylsulfanyl-3-(2′-cyanoaminosulfonylbiphenyl-4-ylmethyl)-3H-imidazole-4-carboxylate], the melting point was 169 °C (dec.). The “Residual activity in %” value in data set [1] amounted to 45.8%.
